Patent publication US9700572B2, “Anti-cancer agent” (priority 2012, dated 2017)

Key:
[1] = system: CD44+ESA+CD24+ pancreas cancer stem cell (Capan-1); assay: Test Example 9: cancer stem cell marker staining (CD44, CD24, ESA), FACS; type: cell-based, human
Protocol: (§1) For preparation of the glucose-containing medium, 4.75 g of Dulbecco's modified Eagle medium 2 (Nissui Pharmaceutical) was dissolved in water, added by 12.5 ml of 1M HEPES pH 7.4 (DOJINDO LABORATORIES, 342-01375), sterilized, added by 18.5 ml of 10% NAHCO3, 10 ml of L-glutamine (Sigma-Aldrich), 5 ml of Anti-Anti (Life technologies), 5 ml of MEM NON-ESSENTIAL AMINO ACID SOLUTION (Sigma-Aldrich) and 50 ml of FETAL BOVINE SERUM (Biowest) that was inactivated in a warm bath at 56° C. for 30 minutes, and finally filled up to 500 ml. The glucose inhibition medium was prepared by adding 2-Deoxy-Glucose (2-DG) (Tokyo Chemical industry) in 15 mM of final concentration to the glucose-containing medium. The medium containing 4 μM arctigenin was prepared by adding arctigenin ([…] Pharmaceutical) in 4 μM of final concentration to the glucose-containing medium or the glucose inhibition medium. The pancreas cancer cell Capan-1 (ATCC No. HTB-79) was seeded in a glucose-containing medium, incubated overnight and then incubated in each of a glucose-containing medium, a glucose inhibition medium, a glucose-containing medium containing 4 μM arctigenin and a glucose inhibition medium containing 4 μM arctigenin, or in 7 μM cisplatin (CDDP: Wako Pure Chemical Industries) for 24 hours. After collected cells, PI staining (dead cell staining) and cancer stem cell marker staining were carried out according to the usual method and an Analysis was carried out using flow cytometry (FACS). For the marker, triple positive of CD44, CD24 and ESA (CD326) which was reported as a stern cell marker of pancreas cancer was used.

[2] = system: human pancreas cancer cell line CAPAN-1; assay: Test Example 6: antitumor evaluation in tumor model animal (CAPAN-1 Xenografts); type: in vivo, nude mouse; details: 50 μg per mouse orally five times a week; one month; FIG. 4
Protocol: (§2) The model animal of a tumor was made by seeding human pancreas cancer cell line CAPAN-1 or PSN-1 in subcutis of back of a nude mouse (BALB-cAJnu/nu; CLEA Japan, Inc.) as a donor and transplanting the tumor mass of the provided donor mouse into subcutis of back of a recipient mouse, Arctigenin (AG), arctiin (A) and the burdock fruit extract (Example 12) were dissolved in DMSO in concentration of 10 mg/ml, diluted with a saline, and then administered orally in stomach at 50 μg per one mouse five times a week. The anticancerous was evaluated by measuring the size of the subcutaneous tumor mass of the back with time.

[3] = system: human pancreas cancer cell line PSN-1; assay: Test Example 6: antitumor evaluation in tumor model animal (PSN-1 Xenografts); type: in vivo, nude mouse; details: 50 μg per mouse orally five times a week; one month; FIG. 5
Protocol: as §2

[4] = system: pancreas cancer cell Capan-1; assay: Test Example 9: PI staining (dead cell staining), FACS; type: cell-based, human; details: 24 hours
Protocol: as §1

[5] = cited from earlier work
[6] = system: pancreas cancer cell line PANC-1; details: PANC-1 screening; cited from earlier work
[7] = system: CD44+,c-MetHigh pancreas cancer stem cell (PANC-1); assay: Test Example 8: cancer stem cell marker staining (CD44, c-Met), FACS; type: cell-based, human; details: 3 μM arctigenin
Protocol: (§3) For preparation of the glucose-containing medium, 4.75 g of Dulbecco's modified Eagle medium 2 (Nissui Pharmaceutical) was dissolved in water, added by 12.5 ml of 1M HEPES pH 7.4 (DOJINDO LABORATORIES, 342-01375), sterilized, added by 18.5 ml of 10% NAHCO3, 10 ml of L-glutamine (Sigma-Aldrich), 5 ml of Anti-Anti (Life technologies), 5 ml of MEM NON-ESSENTIAL AMINO ACID SOLUTION (Sigma-Aldrich) and 50 ml of FETAL BOVINE SERUM (Biowest) that was inactivated in a warm bath at 56° C. for 30 minutes, and finally filled up to 500 ml. The glucose inhibition medium was prepared by adding 2-Deoxy-Glucose (2-DG) (Tokyo Chemical Industry) in 20 mM of final concentration to the glucose-containing medium. The medium containing 3 μM arctigenin was prepared by adding arctigenin ([…] Pharmaceutical) in 3 μM of final concentration to the glucose-containing medium or the glucose inhibition medium. For preparation of FACS buffer, 10 g of Bovine serum albumin Protease free (Wako Pure Chemical industries) was dissolved in 1 L of PBS (-), added by sodium azide in 0.1% of final concentration and performed filtration sterilization. For the fluorescence-labeled antibody for FACS assays, CD44 (338803 or 338807, BioLegend), CD24 (311117, BioLegend), ESA (324205, BioLegend) and c-[…]-8858, eBioscience) were used. In addition, a staining step was carried out according to the attached data sheet to the product. The pancreas cancer cell PANC-1 (ATCC No CRL-1469 was seeded in a glucose-containing medium, incubated overnight and then incubated in each of the glucose-containing medium, the glucose inhibition medium, the glucose-containing medium containing 3 μM arctigenin and the glucose inhibition medium containing 3 μM arctigenin for 24 hours. After collected cells, PI staining (dead cell staining) and cancer stem cell marker staining were carried out according to the usual method and an Analysis was carried out using flow cytometry (FACS). For a marker, triple positive of CD44, CD24 and ESA (CD326) or double positive of CD44 positive and c-Met strong positive which were reported as a stem cell marker of pancreas cancer were used.

[8] = system: CD44+ESA+CD24+ pancreas cancer stem cell (PANC-1); assay: Test Example 8: cancer stem cell marker staining (CD44, CD24, ESA), FACS; type: cell-based, human; details: 3 μM arctigenin
Protocol: as §3

[9] = system: pancreas cancer cell PANC-1; assay: Test Example 8: PI staining (dead cell staining), FACS; type: cell-based, human; details: 3 μM arctigenin
Protocol: For preparation of the glucose-containing medium, 4.75 g of Dulbecco's modified Eagle medium 2 (Nissui Pharmaceutical) was dissolved in water, added by 12.5 ml of 1M HEPES pH 7.4 (DOJINDO LABORATORIES, 342-01375), sterilized, added by 18.5 ml of 10% NAHCO3, 10 ml of L-glutamine (Sigma-Aldrich), 5 ml of Anti-Anti (Life technologies), 5 ml of MEM NON-ESSENTIAL AMINO ACID SOLUTION (Sigma-Aldrich) and 50 ml of FETAL BOVINE SERUM (Biowest) that was inactivated in a warm bath at 56° C. for 30 minutes, and finally filled up to 500 ml. The glucose inhibition medium was prepared by adding 2-Deoxy-Glucose (2-DG) (Tokyo Chemical Industry) in 20 mM of final concentration to the glucose-containing medium. The medium containing 3 μM arctigenin was prepared by adding arctigenin ([…] Pharmaceutical) in 3 μM of final concentration to the glucose-containing medium or the glucose inhibition medium. For preparation of FACS buffer, 10 g of Bovine serum albumin Protease free (Wako Pure Chemical industries) was dissolved in 1 L of PBS (-), added by sodium azide in 0.1% of final concentration and performed filtration sterilization. The pancreas cancer cell PANC-1 (ATCC No CRL-1469 was seeded in a glucose-containing medium, incubated overnight and then incubated in each of the glucose-containing medium, the glucose inhibition medium, the glucose-containing medium containing 3 μM arctigenin and the glucose inhibition medium containing 3 μM arctigenin for 24 hours. After collected cells, PI staining (dead cell staining) and cancer stem cell marker staining were carried out according to the usual method and an Analysis was carried out using flow cytometry (FACS). For a marker, triple positive of CD44, CD24 and ESA (CD326) or double positive of CD44 positive and c-Met strong positive which were reported as a stem cell marker of pancreas cancer were used.

COc1cc(C[C@H]2C(=O)OC[C@@H]2Cc2ccc(OC)c(OC)c2)ccc1O [arctigenin]
ratio of CD44+ESA+CD24+ cell in all analyzed cells ([1]; 4 μM arctigenin, glucose inhibition condition, without arctigenin 1.40%): 0.24%
ratio of CD44+ESA+CD24+ cell analyzed in viable cells ([1]; 4 μM arctigenin, glucose inhibition condition, without arctigenin 1.77%): 0.50%
number of the survival of CD44+ESA+CD24+ cell ([1]; 4 μM arctigenin, glucose inhibition condition, without arctigenin 105): 18
ratio of CD44+ESA+CD24+ cell in all analyzed cells ([1]; 4 μM arctigenin, glucose-containing condition, without arctigenin 0.87%): 1.04%
ratio of CD44+ESA+CD24+ cell analyzed in viable cells ([1]; 4 μM arctigenin, glucose-containing condition, without arctigenin 1.28%): 1.43%
number of the survival of CD44+ESA+CD24+ cell ([1]; 4 μM arctigenin, glucose-containing condition, without arctigenin 65): 78
antitumor effect (size of subcutaneous tumor mass) [2]: antitumor effect was also obtained
antitumor effect (size of subcutaneous tumor mass) [3]: antitumor effect was also obtained
cellular survival rate (PI staining) ([4]; 4 μM arctigenin, glucose inhibition condition (15 mM 2-DG), without arctigenin 79.10%): 48.73%
cellular survival rate (PI staining) ([4]; 4 μM arctigenin, glucose-containing condition, without arctigenin 67.57%): 72.80%
solubility in water [5]: hardly soluble
cancel the viability of tumor cells under undernutrition condition [6]: effective
positive ratio of CD44+,c-MetHigh cell in all analyzed cells ([7]; glucose inhibition condition, without arctigenin 0.78%): 0.22%
number of the survival of CD44+,c-MetHigh cell ([7]; glucose inhibition condition, without arctigenin 47): 13
positive ratio of CD44+,c-MetHigh cell in all analyzed cells ([7]; glucose-containing condition, without arctigenin 0.63%): 0.52%
number of the survival of CD44+,c-MetHigh cell ([7]; glucose-containing condition, without arctigenin 38): 31
ratio of CD44+ESA+CD24+ cell in all analyzed cells ([8]; glucose inhibition condition, without arctigenin 6.51%): 0.98%
number of the survival of CD44+ESA+CD24+ cell ([8]; glucose inhibition condition, without arctigenin 651): 98
ratio of CD44+ESA+CD24+ cell in all analyzed cells ([8]; glucose-containing condition, without arctigenin 4.41%): 5.01%
number of the survival of CD44+ESA+CD24+ cell ([8]; glucose-containing condition, without arctigenin 441): 501
cellular survival rate (PI staining) ([9]; glucose inhibition condition (20 mM 2-DG), 24 hours, FIG. 6, without arctigenin 68.53%): 35.71%
cellular survival rate (PI staining) ([9]; glucose inhibition condition, FIG. 7, without arctigenin 88.80%): 27.50%
cellular survival rate (PI staining) ([9]; glucose-containing condition, 24 hours, FIG. 6, without arctigenin 78.20%): 69.50%
cellular survival rate (PI staining) ([9]; glucose-containing condition, FIG. 7, without arctigenin 84.70%): 83.30%

COc1ccc(C[C@H]2COC(=O)[C@@H]2Cc2ccc(O[C@@H]3O[C@H](CO)[C@@H](O)[C@H](O)[C@H]3O)c(OC)c2)cc1OC [arctiin]
solubility in water [5]: hardly soluble

N.N.[Cl][Pt][Cl] [cisplatin, reference compound]
number of the survival of CD44+ESA+CD24+ cell ([1]; 7 μM cisplatin treatment): 88
ratio of CD44+ESA+CD24+ cell analyzed in viable cells ([1]; 7 μM cisplatin treatment): 2.02%
ratio of CD44+ESA+CD24+ cell in all analyzed cells ([1]; 7 μM cisplatin treatment): 1.17%
cellular survival rate (PI staining) ([4]; 7 μM cisplatin): 58.08%
